From US8669315B2, “Polycarbonate compositions and methods for the manufacture and use thereof” (SABIC Innovative Plastics IP B.V., priority 2011, dated 2014)

Experiments:
[1] = biological target: recombinant human estradiol receptors (rhER) beta 1 (β1) (Homo sapiens, UniProt Q92731); experiment: in vitro competitive binding assay, displacement of [3H]estradiol from rhER beta 1; details: highest concentration 2.5×E−4 M
[2] = biological target: T1, recombinant human estradiol receptors (rhER) alpha (α) (Homo sapiens, UniProt P03372); experiment: in vitro competitive binding assay, displacement of [3H]estradiol from rhER alpha; details: running text, highest concentration 2.5×E−4 M
T1 sequence (P03372 1-595): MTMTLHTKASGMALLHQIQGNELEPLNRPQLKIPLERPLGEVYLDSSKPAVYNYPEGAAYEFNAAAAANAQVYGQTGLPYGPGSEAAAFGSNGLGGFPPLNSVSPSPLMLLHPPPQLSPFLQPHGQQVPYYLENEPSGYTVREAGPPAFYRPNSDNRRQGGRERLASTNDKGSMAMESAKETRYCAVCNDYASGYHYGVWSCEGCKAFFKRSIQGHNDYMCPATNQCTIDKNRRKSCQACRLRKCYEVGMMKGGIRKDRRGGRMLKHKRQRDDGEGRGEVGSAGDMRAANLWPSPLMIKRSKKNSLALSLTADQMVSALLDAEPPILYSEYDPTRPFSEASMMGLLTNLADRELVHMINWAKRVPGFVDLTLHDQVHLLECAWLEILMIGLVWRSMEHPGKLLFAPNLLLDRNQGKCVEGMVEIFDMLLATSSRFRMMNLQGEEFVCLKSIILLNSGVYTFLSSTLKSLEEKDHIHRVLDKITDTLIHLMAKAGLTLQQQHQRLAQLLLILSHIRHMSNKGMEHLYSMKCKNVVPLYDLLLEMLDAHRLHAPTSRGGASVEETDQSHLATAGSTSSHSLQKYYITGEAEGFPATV

Compound | estradiol binding / displacement at the beta estradiol receptor (in words) ([1]; running text) | estradiol binding / displacement at the alpha estradiol receptor (in words) [2] | further results
O=C1OC(c2ccc(O)cc2)(c2ccc(O)cc2)c2ccccc21 [P, Phenolphthalein, reference compound] | estradiol displacement at low concentration | – | –
COC(=O)CCC(C)(c1ccc(O)cc1)c1ccc(O)cc1 [F, Diphenolic Acid Methyl Ester, reference compound] | displace estradiol | displace estradiol | –
Fluorenone Bis o-Cresol [J, reference compound] | displace estradiol at low concentrations | – | –
Cc1cc(C2(c3ccc(O)c(C)c3)CCCCC2)ccc1O [H, Dimethyl Cyclohexyl Bisphenol, reference compound] | displacement of estradiol | displacement of estradiol | –
Biphenol [Example 7] | no estradiol binding | no displacement | estradiol binding / displacement at the alpha estradiol receptor (in words) ([2]; listed as biphenol): no estradiol binding
Cc1cc(O)ccc1O [Example 9, Methyl Hydroquinone] | no alpha or beta estradiol displacement | – | estradiol binding / displacement at the beta estradiol receptor (in words) ([1]; running text, listed as methyl hydroquinone): no estradiol binding
CC(c1ccccc1)(c1ccc(O)cc1)c1ccc(O)cc1 [D, Bisphenol Acetophenone, reference compound] | – | displace estradiol | –
Bis Hydroxy Phenyl Menthane [reference compound] | displace estradiol at low concentrations | displace estradiol at low concentrations | –
Tetra Methyl BPA [Example 2] | no detectible estradiol displacement | – | estradiol binding / displacement at the beta estradiol receptor (in words) ([1]; listed as tetra methyl bisphenol-A): no estradiol binding
CC(C)(c1ccc(O)cc1)c1cccc(C(C)(C)c2ccc(O)cc2)c1 [L, Bisphenol M, reference compound] | displace estradiol at low concentrations | displace estradiol at low concentrations | –
O=C1c2ccccc2C(c2ccc(O)cc2)(c2ccc(O)cc2)N1c1ccccc1 [Example 4, N-Phenyl Phenolphthalein Bisphenol] | no detectible estradiol displacement | no detectible estradiol displacement | estradiol binding / displacement at the alpha estradiol receptor (in words) ([2]; listed as N-phenyl phenolphthalein bisphenol): no estradiol binding; estradiol binding / displacement at the beta estradiol receptor (in words) ([1]; running text, listed as N-phenyl phenolphthalein bisphenol): no estradiol binding
CC(C)(c1ccccc1)c1ccc(O)cc1 [B, p-Cumyl Phenol, reference compound] | displace estradiol | displace estradiol | –
Oc1ccc(Oc2ccc(O)cc2)cc1 [C, Dihydroxy Diphenyl Ether, reference compound] | displace estradiol | – | –
Oc1cccc(O)c1 [Example 5, Resorcinol] | no detectible estradiol displacement | no detectible estradiol displacement | estradiol binding / displacement at the alpha estradiol receptor (in words) ([2]; listed as resorcinol): no estradiol binding; estradiol binding / displacement at the beta estradiol receptor (in words) ([1]; running text, listed as resorcinol): no estradiol binding
